According to patent US20150336889A1, “INDOLE DERIVATIVES, PHARMACEUTICAL COMPOSITIONS CONTAINING SUCH INDOLES AND THEIR USE AS DNA METHYLATION MODULATORS” (IKERCHEM, S.L., priority 2012, published 2015):

Tests used:
PC3 = experiment: Cancer cell growth inhibition, PC3; assay type: cell-based; conditions: Homo sapiens, PC-3; Prostate, PC3, cell viability, 72 h
Protocol: (§1) Cell culture-based assays were used to evaluate the ability of compounds of the invention to inhibit cancer cell growth inhibition.
(§2) Cells were obtained from the American Type Culture Collection (ATCC) and European Collection of Cell Cultures (ECACC).
(§3) Cells were thawed in their appropriate media plus supplements (see table below). Cells were passaged at confluence by washing once in HBSS cation-free followed by a 3 minutes incubation with trypsin ([0.5 μg/ml]/EDTA [0.2 μg/ml]) (Gibco-BRL, 15400054) solution in HBSS at 37° C. (except non-adherent cell lines), and transferred to their appropriate media plus supplements. Prior to seeding at defined cell concentration, cells were recovered in medium, centrifuged and taken up in medium, and counted.
(§4) Cells were plated at 3000/5000/10000 cells/well in 100 μl media in tissue culture 96 well plates (Cultek). After 24 h, media was supplemented by 100 μl/well of diluted IPDNs at 100 μM.
(§5) The Hexosaminidase assay was used for the adherent cell lines, whereas the AlamarBlue® assay was used for the non-adherent cell lines.
(§6) Dose-response curves were generated by serial dilutions (1:1) of the compounds. […] Reagent blanks, containing media plus colorimetric reagent without cells were run on each plate. Blank values were subtracted from test values and were routinely 5-10% of uninhibited control values. Plates were incubated 72 h, and living cell number was determined by AlamarBlue® and Hexosaminidase test. The advantages of using those assays are that both can be done in the same microwell plate. AlamarBlue® assay: plates were incubated 72 h and living cell number was determined by AlamarBlue (Biosource DAL1100). After 4 h incubation at 37° C., relative fluorescent intensity, which correlates with the number of living cells, was read in a Cytofluor plate reader (Millipore) at 535/590 nm (Excitation/emission). The hexosaminidase activity was measured according to the following protocol: the media was removed and cells were washed once with PBS.
(§7) Data analysis was done by calculating the percentage of cell viability normalized in front of negative control values, which were considered as a 100%. The curve was adjusted using a sigmoidal dose-response (variable slope) equation and EC50 values were obtained from the equation
(§8) where, X is the logarithm of concentration. Y is the response. Bottom is the Y value at the bottom plateau Top is the Y value at the top plateau LogEC50 is the X value when the response is halfway between Bottom and Top. With different kinds of variables, this variable is sometimes called ED50 (effective dose, 50%), or IC50 (inhibitory concentration, 50%, used when the curve goes downhill).

U-87MG = experiment: Cancer cell growth inhibition, U-87MG; assay type: cell-based; conditions: Homo sapiens, Brain, cell viability, 72 h
Protocol: as §1, §2, §3, §4, §5, §6, §7, §8

CCFR-CEM = experiment: Cancer cell growth inhibition, CCFR-CEM; assay type: cell-based; conditions: Hematologic, cell viability, 72 h
Protocol: as §1, §2, §3, §4, §5, §6, §7, §8

A-549 = experiment: Cancer cell growth inhibition, A-549; assay type: cell-based; conditions: Homo sapiens, A549; Lung, A-549, cell viability, 72 h
Protocol: as §1, §2, §3, §4, §5, §6, §7, §8

HT-29 = experiment: Cancer cell growth inhibition, HT-29; assay type: cell-based; conditions: Homo sapiens; Colorectal, HT-29, cell viability, 72 h
Protocol: as §1, §2, §3, §4, §5
as §6, with “PBS. […]” for “PBS.”

Human DNMT1 = target: T1, Human DNMT1 (Homo sapiens, UniProt P26358); experiment: DNMT1 enzymatic activity inhibition, radioisotope-based 3H-SAM filter binding assay; assay type: biochemical; conditions: 1 μM SAM, 25 nM DNMT1, 0.005 mg/ml Poly(dI-dC), 30° C. 1 hour, 10-dose
T1 construct: a-a 2-1632, with N-terminal GST tag; GST (N)
T1 sequence (P26358 2-1632 isoform P26358-2): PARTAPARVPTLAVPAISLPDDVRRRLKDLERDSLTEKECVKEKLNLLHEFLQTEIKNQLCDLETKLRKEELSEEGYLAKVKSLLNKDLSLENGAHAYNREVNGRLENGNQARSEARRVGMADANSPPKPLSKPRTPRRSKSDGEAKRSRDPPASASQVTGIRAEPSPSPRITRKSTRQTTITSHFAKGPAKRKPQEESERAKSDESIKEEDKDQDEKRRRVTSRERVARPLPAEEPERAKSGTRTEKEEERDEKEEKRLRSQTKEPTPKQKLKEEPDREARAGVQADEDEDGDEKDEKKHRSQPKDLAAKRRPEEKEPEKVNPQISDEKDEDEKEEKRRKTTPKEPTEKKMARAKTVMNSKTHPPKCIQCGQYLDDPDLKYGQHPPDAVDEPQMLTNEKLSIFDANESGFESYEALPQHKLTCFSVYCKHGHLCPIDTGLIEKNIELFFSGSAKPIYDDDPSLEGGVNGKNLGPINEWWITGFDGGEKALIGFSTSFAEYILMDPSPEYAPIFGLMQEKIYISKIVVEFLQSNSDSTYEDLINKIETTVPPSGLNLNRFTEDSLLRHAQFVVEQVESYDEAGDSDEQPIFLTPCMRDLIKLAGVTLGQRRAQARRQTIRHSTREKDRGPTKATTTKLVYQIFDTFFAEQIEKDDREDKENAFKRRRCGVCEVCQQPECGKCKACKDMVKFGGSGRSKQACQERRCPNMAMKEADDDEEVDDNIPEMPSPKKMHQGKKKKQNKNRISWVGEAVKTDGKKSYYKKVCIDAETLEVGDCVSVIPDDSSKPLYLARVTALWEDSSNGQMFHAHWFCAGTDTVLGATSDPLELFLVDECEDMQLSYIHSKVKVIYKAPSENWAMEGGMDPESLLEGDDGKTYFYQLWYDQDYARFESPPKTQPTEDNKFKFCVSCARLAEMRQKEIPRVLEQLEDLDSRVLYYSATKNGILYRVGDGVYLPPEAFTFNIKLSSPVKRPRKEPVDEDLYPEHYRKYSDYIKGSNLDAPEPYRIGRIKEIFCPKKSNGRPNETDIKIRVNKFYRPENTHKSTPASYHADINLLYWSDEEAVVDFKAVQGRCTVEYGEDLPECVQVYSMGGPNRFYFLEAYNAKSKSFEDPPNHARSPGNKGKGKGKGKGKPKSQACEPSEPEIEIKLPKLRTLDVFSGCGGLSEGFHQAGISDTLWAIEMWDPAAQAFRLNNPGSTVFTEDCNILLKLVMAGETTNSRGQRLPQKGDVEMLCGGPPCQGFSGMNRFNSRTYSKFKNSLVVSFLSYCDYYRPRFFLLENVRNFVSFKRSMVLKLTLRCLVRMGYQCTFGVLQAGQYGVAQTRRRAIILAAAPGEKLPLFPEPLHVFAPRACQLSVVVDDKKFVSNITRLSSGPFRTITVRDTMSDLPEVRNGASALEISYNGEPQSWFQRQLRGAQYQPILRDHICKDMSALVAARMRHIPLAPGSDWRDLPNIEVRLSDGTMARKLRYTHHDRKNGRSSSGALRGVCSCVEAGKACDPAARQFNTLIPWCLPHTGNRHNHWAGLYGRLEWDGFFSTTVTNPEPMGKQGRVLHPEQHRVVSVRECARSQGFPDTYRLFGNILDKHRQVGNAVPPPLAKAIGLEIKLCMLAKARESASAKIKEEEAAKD
Protocol: The inhibition of the enzymatic activity of DNMT1 was tested using low volume radioisotope-based assay which uses tritium-labeled AdoMet (^3H-SAM) as a methyl donor. Inhibitors diluted in DMSO were added by using acoustic technology (Echo550, Labcyte Inc. Sunnyvale, Calif.) into enzyme/substrate mixture in nano-liter range. The reaction was initiated by the addition of ^3H-SAM, and incubated at 30° C. for 1 hour. Total final methylations on the substrate poly(dI-dC) were detected by a filter binding approach. Data analysis was performed using GraphPad Prism software (La Jolla, Calif.) for IC50 curve fits.

LnCaP = experiment: Cancer cell growth inhibition, LnCaP; assay type: cell-based; conditions: Homo sapiens, Prostate, cell viability, 72 h
Protocol: as §1, §2, §3, §4, §5, §6, §7, §8

MDA-MB-435 = experiment: Cancer cell growth inhibition, MDA-MB-435; assay type: cell-based; conditions: Homo sapiens; Melanoma, MDA-MB-435, cell viability, 72 h
Protocol: as §1, §2, §3, §4, §5, §6, §7, §8

A-431 = experiment: Cancer cell growth inhibition, A-431; assay type: cell-based; conditions: Homo sapiens; Epidermoid, A-431, cell viability, 72 h
Protocol: as §1, §2, §3, §4, §5, §6, §7, §8

Panc-1 = experiment: Cancer cell growth inhibition, Panc-1; assay type: cell-based; conditions: Homo sapiens; Pancreatic, Panc-1, cell viability, 72 h
Protocol: as §1, §2, §3, §4, §5, §6, §7, §8

Jurkat = experiment: Cancer cell growth inhibition, Jurkat; assay type: cell-based; conditions: Homo sapiens, Hematologic, cell viability, 72 h
Protocol: as §1, §2, §3, §4, §5, §6, §7, §8

RAMOS = experiment: Cancer cell growth inhibition, RAMOS; assay type: cell-based; conditions: Homo sapiens, Hematologic, cell viability, 72 h
Protocol: as §1, §2, §3, §4, §5, §6, §7, §8

NCI-H358 = experiment: Cancer cell growth inhibition, NCI-H358; assay type: cell-based; conditions: Homo sapiens; Lung, NCI-H358, cell viability, 72 h
Protocol: as §1, §2, §3, §4, §5, §6, §7, §8

MDA-MB-468 = experiment: Cancer cell growth inhibition, MDA-MB-468; assay type: cell-based; conditions: Homo sapiens; Breast, MDA-MB-468, cell viability, 72 h
Protocol: as §1, §2, §3, §4, §5
as §6, with “PBS. […]” for “PBS.”

143B = experiment: Cancer cell growth inhibition, 143B; assay type: cell-based; conditions: Homo sapiens, Osteosarcoma, cell viability, 72 h
Protocol: as §1, §2, §3, §4, §5, §6, §7, §8

HCT-116 = experiment: Cancer cell growth inhibition, HCT-116; assay type: cell-based; conditions: Homo sapiens; Colorectal, HCT-116, cell viability, 72 h
Protocol: as §1, §2, §3, §4, §5, §6, §7, §8

Daoy = experiment: Cancer cell growth inhibition, Daoy; assay type: cell-based; conditions: Homo sapiens, Brain, cell viability, 72 h
Protocol: as §1, §2, §3, §4, §5, §6, §7, §8

- EC50 (PC3): 48 µM
- EC50 (U-87MG): 22 µM
- EC50 (CCFR-CEM): 34 µM
- EC50 (A-549): 93 µM
- EC50 (HT-29): 59 µM
- IC50 (Human DNMT1): 6.85 µM
- EC50 (LnCaP): 27 µM
- EC50 (MDA-MB-435): 23 µM
- EC50 (A-431): 59 µM
- EC50 (Panc-1): 55 µM
- EC50 (Jurkat): 56 µM
- EC50 (RAMOS): 55 µM
- EC50 (NCI-H358): 50 µM
- EC50 (MDA-MB-468): 94 µM
- EC50 (143B): 19 µM
- EC50 (HCT-116): 96 µM
- EC50 (Daoy): 50 µM
SMILES: COc1cc(OC)c2c(-c3ccc(O)c(O)c3)cn(CC(=O)c3ccc(O)c(O)c3)c2c1 [Example 8, 1-(3,4-dihydroxyphenyl)-2-[3-(3,4-dihydroxyphenyl)-4,6-dimethoxy-1H-indol-1-yl]ethanone]
